The text below walks through data of patent publication US7098234B2, “Indole derivatives, process for preparation of the same and use thereof” (Ono Pharmaceutical Co., Ltd., priority 2000, dated 2006).

For experiment [1], the target named is T1, mouse DP receptor (Mus musculus, UniProt P70263).
T1 construct: expressed in transfected cells; host or cells: CHO cells (membrane fraction)
T1 sequence (P70263 1-357): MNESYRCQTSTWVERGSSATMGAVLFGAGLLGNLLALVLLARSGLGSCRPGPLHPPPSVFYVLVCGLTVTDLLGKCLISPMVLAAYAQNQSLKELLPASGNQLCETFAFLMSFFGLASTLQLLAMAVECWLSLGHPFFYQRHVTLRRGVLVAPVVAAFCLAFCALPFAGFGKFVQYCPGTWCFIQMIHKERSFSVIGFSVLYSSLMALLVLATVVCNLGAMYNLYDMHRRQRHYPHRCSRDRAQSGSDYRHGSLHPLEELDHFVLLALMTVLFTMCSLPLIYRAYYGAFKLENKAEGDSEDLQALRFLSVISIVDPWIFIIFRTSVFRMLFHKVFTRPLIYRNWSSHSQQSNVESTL
The experiment in a line: DP antagonistic activity assay using prostanoid DP receptor-expressing cells (cAMP production by PGD2). The settings on record: CHO cells expressing mouse DP receptor; inhibition of cAMP production by PGD2 at 100 nM. It counts as cell-based. The protocol:
As shown in the above results, it is apparent that the compound of the present invention potently binds to a DP receptor. • (ii) DP antagonistic activity assay using prostanoid DP receptor-expressing cells
CHO cells expressing a mouse DP receptor were prepared according to the method of Nishigaki et al. (FEBS lett., 364, 339–341 (1995)), inoculated onto a 24-well microplate at 10^5 cells/well, followed by culturing for 2 days, and used for the assay. Each well was washed with 500 μL of MEM (minimum essential medium), and 450 μL of assay medium (MEM containing 1 mmol/L IBMX and 0.1 or 1% BSA), followed by incubation at 37° C. for 10 minutes. Then, an assay medium (50 μL) containing PGD2 alone or PGD2 with a test compound was added thereto to start the reaction, and after the reaction at 37° C. for 10 minutes, 500 μL of ice-cold trichloroacetatic acid (TCA) (10% w/v) was added thereto to stop the reaction. The reaction solution was frozen once (−80° C.) and thawed, and cells were peeled using a scraper, followed by centrifugation at 13,000 rpm for 3 minutes. The cAMP concentration was measured with a cAMP assay kit using the resulting supernatant. […] Trichloro acetic acid (TCA) was extracted to the chloroform layer and removed, the cAMP amount in a sample was determined using the aqueous layer as the sample according to the method described in the [^125I]cAMP assay kit. […]
(Changes in cAMP serve as a functional read-out for many G protein-coupled receptors.)

The target in experiment [2] is T1, mouse DP receptor. Briefly: Receptor binding test using prostanoid DP receptor-expressing cells (3H-PGD2 binding inhibition). The settings on record: CHO cell membranes expressing mouse DP receptor; 3H-PGD2 2.5 nmol/L; Ki=IC50/(1+([L]*/Kd)). How it is done:
The compound of the present invention represented by formula (I) potently binds to a DP receptor and show an antagonistic activity. For example, in a laboratory test, such effects were confirmed by the following receptor binding test using prostanoid receptor-expressing cells. • (i) Receptor binding test using prostanoid DP receptor-expressing cells
CHO cells expressing a mouse DP receptor was prepared according to the method of Hirata et al. (Proc. Natl. Acad. Sci., 91, 11192–11196 (1994)) and used as a membrane standard.
A reaction solution (200 μL) containing the prepared membrane standard (30–166 μg) and ^3H-PGD2 was incubated at room temperature for 20 minutes. The reaction was stopped with an ice-cold buffer (1 mL) and the binding ^3H-PGD2 was trapped in on a glass filter by immediate aspiration-filtration under a reduced pressure, and its binding radioactivity was measured using a liquid scintillation counter.
A Kd value and a Bmax value were obtained from Scatchard plots (Ann. N.Y. Acad. Sci., 51, 660 (1949)). Non-specific binding was obtained as the binding radioactivity in the presence of unlabeled PGD2 at an excess amount (10 μmol/L). ^3H-PGD2 binding inhibition by the compound of the present invention was measured by adding ^3H-PGD2 (2.5 nmol/L) and the compound of the present invention as various concentrations. Also, the following buffers were used for the reactions. […]

Broadly, the IC50 is the concentration that gives 50% inhibition. As a reminder, the Ki is a dissociation constant, usually derived from enzyme kinetics or from competition with a known ligand. Low readings indicate tighter binding, high ones weaker binding. In experiment [1], `Cc1cc2c(CC(=O)O)cccc2n1C(=O)c1ccc(OCCc2ccccc2)cc1` [1(3)] yielded a half-maximal inhibitory concentration (IC50) of 120 nM. This compound gave a Ki in experiment [2] of 1.8 nM.

In experiment [2], `CCCCCOc1ccc(C(=O)n2c(C)cc3c(CC(=O)O)cccc32)cc1` [1(4), 1-(4-Pentyloxybenzoyl)-2-methylindole-4-acetic acid] registered a Ki of 4.3 nM.
